Laboratory results as given in PubChem BioAssay AID1963841 (Molecular Pharmacology Branch, DTP, NCI, 2024).

System: 439559-082-T-J2-PDC spheroid viability
Experiment: Anticancer human tumor 439559-082-T-J2-PDC patient-derived colon adenocarcinoma cell line growth inhibition [POLQ]
Conditions: spheroids with HUVEC and MSC; for IC50: curve of first compound; for viability, T/C: stronger effect = lower value
Outline: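 Growth inhibition in 3D: complex spheroids (tumor PDC, HUVEC, MSC) treated with POLQ inhibitor combinations; where Cmax unknown, highest tested concentration 10 microM, except SN-38 at 1 microM.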

[1] = second compound 0.0316 µM, first compound 0.0316 µM
[2] = second compound 0.0316 µM, first compound 0.1 µM
[3] = second compound 0.0316 µM, first compound 0.316 µM
[4] = second compound 0.0316 µM, first compound 1 µM
[5] = second compound 0.0316 µM, first compound 3.16 µM
[6] = second compound 0.0316 µM, first compound 10 µM
[7] = second compound 0.1 µM, first compound 0.0316 µM
[8] = second compound 0.1 µM, first compound 0.1 µM
[9] = second compound 0.1 µM, first compound 0.316 µM
[10] = second compound 0.1 µM, first compound 1 µM
[11] = second compound 0.1 µM, first compound 3.16 µM
[12] = second compound 0.1 µM, first compound 10 µM
[13] = second compound 0.316 µM, first compound 0.0316 µM
[14] = second compound 0.316 µM, first compound 0.1 µM
[15] = second compound 0.316 µM, first compound 0.316 µM
[16] = second compound 0.316 µM, first compound 1 µM
[17] = second compound 0.316 µM, first compound 3.16 µM
[18] = second compound 0.316 µM, first compound 10 µM
[19] = second compound 1 µM, first compound 0.0316 µM
[20] = second compound 1 µM, first compound 0.1 µM
[21] = second compound 1 µM, first compound 0.316 µM
[22] = second compound 1 µM, first compound 1 µM
[23] = second compound 1 µM, first compound 3.16 µM
[24] = second compound 1 µM, first compound 10 µM
[25] = second compound 3.16 µM, first compound 0.0316 µM
[26] = second compound 3.16 µM, first compound 0.1 µM
[27] = second compound 3.16 µM, first compound 0.316 µM
[28] = second compound 3.16 µM, first compound 1 µM
[29] = second compound 3.16 µM, first compound 3.16 µM
[30] = second compound 3.16 µM, first compound 10 µM
[31] = second compound 10 µM, first compound 0.0316 µM
[32] = second compound 10 µM, first compound 0.1 µM
[33] = second compound 10 µM, first compound 0.316 µM
[34] = second compound 10 µM, first compound 1 µM
[35] = second compound 10 µM, first compound 3.16 µM
[36] = second compound 10 µM, first compound 10 µM
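Also: spheroids exposed to compounds for seven days before readout.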
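For viability, T/C in this document: 100% = DMSO vehicle control viability.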

CCc1cc2c(N3CCc4c(cc(Cn5ccnc5)cc4-c4cn(C)nc4C(F)(F)F)C3=O)cc(C)nc2c(OC)n1 + Nc1ccc(C#CCN(C(=O)Cc2ncc(C(F)(F)F)cc2C(F)(F)F)c2ccc(F)cc2)nn1
IC50 (second compound 0.0316 µM): > 10 µM | IC50 (second compound 0.1 µM): > 10 µM | IC50 (second compound 0.316 µM): > 10 µM | IC50 (second compound 1 µM): > 10 µM | IC50 (second compound 3.16 µM): > 10 µM | IC50 (second compound 10 µM): > 10 µM | viability, T/C [1]: 97% | viability, T/C [2]: 96.8% | viability, T/C [3]: 95.3% | viability, T/C [4]: 93.2% | viability, T/C [5]: 98.2% | viability, T/C [6]: 92.7% | viability, T/C [7]: 108% | viability, T/C [8]: 87.9% | viability, T/C [9]: 89.7% | viability, T/C [10]: 95.9% | viability, T/C [11]: 91.9% | viability, T/C [12]: 96.2% | viability, T/C [13]: 102% | viability, T/C [14]: 92.2% | viability, T/C [15]: 95.7% | viability, T/C [16]: 96% | viability, T/C [17]: 96.1% | viability, T/C [18]: 86.5% | viability, T/C [19]: 94.5% | viability, T/C [20]: 95% | viability, T/C [21]: 89.3% | viability, T/C [22]: 85.3% | viability, T/C [23]: 104% | viability, T/C [24]: 88.6% | viability, T/C [25]: 101% | viability, T/C [26]: 93.3% | viability, T/C [27]: 85.9% | viability, T/C [28]: 86.3% | viability, T/C [29]: 92.6% | viability, T/C [30]: 86.3% | viability, T/C [31]: 98.5% | viability, T/C [32]: 95.3% | viability, T/C [33]: 80.4% | viability, T/C [34]: 96% | viability, T/C [35]: 89.1% | viability, T/C [36]: 86.8%

CCc1cc2c(N3CCc4c(cc(Cn5ccnc5)cc4-c4cn(C)nc4C(F)(F)F)C3=O)ccnc2c(OC)n1 + Nc1ccc(C#CCN(C(=O)Cc2ncc(C(F)(F)F)cc2C(F)(F)F)c2ccc(F)cc2)nn1
IC50 (second compound 0.0316 µM): > 10 µM | IC50 (second compound 0.1 µM): > 10 µM | IC50 (second compound 0.316 µM): > 10 µM | IC50 (second compound 1 µM): > 10 µM | IC50 (second compound 3.16 µM): > 10 µM | IC50 (second compound 10 µM): > 10 µM | viability, T/C [1]: 98% | viability, T/C [2]: 94.8% | viability, T/C [3]: 93.3% | viability, T/C [4]: 89.9% | viability, T/C [5]: 83% | viability, T/C [6]: 84% | viability, T/C [7]: 90.6% | viability, T/C [8]: 101% | viability, T/C [9]: 86% | viability, T/C [10]: 86.2% | viability, T/C [11]: 96.5% | viability, T/C [12]: 95.6% | viability, T/C [13]: 102% | viability, T/C [14]: 105% | viability, T/C [15]: 86.5% | viability, T/C [16]: 97.2% | viability, T/C [17]: 93.7% | viability, T/C [18]: 86.9% | viability, T/C [19]: 88.7% | viability, T/C [20]: 95.8% | viability, T/C [21]: 86.5% | viability, T/C [22]: 88.5% | viability, T/C [23]: 95.1% | viability, T/C [24]: 80.5% | viability, T/C [25]: 104% | viability, T/C [26]: 102% | viability, T/C [27]: 95% | viability, T/C [28]: 82.7% | viability, T/C [29]: 88.8% | viability, T/C [30]: 78.7% | viability, T/C [31]: 98.9% | viability, T/C [32]: 91.8% | viability, T/C [33]: 92.2% | viability, T/C [34]: 93.9% | viability, T/C [35]: 91.7% | viability, T/C [36]: 84.7%

COc1cc2cc(C(=O)CCC(=O)O)sc2cc1OC + Nc1ccc(C#CCN(C(=O)Cc2ncc(C(F)(F)F)cc2C(F)(F)F)c2ccc(F)cc2)nn1
IC50 (second compound 0.0316 µM): > 10 µM | IC50 (second compound 0.1 µM): > 10 µM | IC50 (second compound 0.316 µM): > 10 µM | IC50 (second compound 1 µM): > 10 µM | IC50 (second compound 3.16 µM): > 10 µM | IC50 (second compound 10 µM): > 10 µM | viability, T/C [1]: 99.2% | viability, T/C [2]: 99.3% | viability, T/C [3]: 96.7% | viability, T/C [4]: 95.8% | viability, T/C [5]: 105% | viability, T/C [6]: 97.5% | viability, T/C [7]: 95% | viability, T/C [8]: 107% | viability, T/C [9]: 93.1% | viability, T/C [10]: 99.2% | viability, T/C [11]: 93% | viability, T/C [12]: 98.7% | viability, T/C [13]: 94.5% | viability, T/C [14]: 101% | viability, T/C [15]: 97.4% | viability, T/C [16]: 93.4% | viability, T/C [17]: 98.1% | viability, T/C [18]: 91.8% | viability, T/C [19]: 96.2% | viability, T/C [20]: 103% | viability, T/C [21]: 90.3% | viability, T/C [22]: 93.6% | viability, T/C [23]: 99.3% | viability, T/C [24]: 88.4% | viability, T/C [25]: 90.5% | viability, T/C [26]: 88.8% | viability, T/C [27]: 98.6% | viability, T/C [28]: 91.3% | viability, T/C [29]: 97% | viability, T/C [30]: 102% | viability, T/C [31]: 107% | viability, T/C [32]: 101% | viability, T/C [33]: 98.2% | viability, T/C [34]: 98.8% | viability, T/C [35]: 96.4% | viability, T/C [36]: 82.6%

O=C(Nc1ccc(O)c(NS(=O)(=O)c2ccc(F)cc2)c1)c1ccc(-c2ccccc2)cc1 + Nc1ccc(C#CCN(C(=O)Cc2ncc(C(F)(F)F)cc2C(F)(F)F)c2ccc(F)cc2)nn1
IC50 (second compound 0.0316 µM): > 10 µM | IC50 (second compound 0.1 µM): > 10 µM | IC50 (second compound 0.316 µM): > 10 µM | IC50 (second compound 1 µM): > 10 µM | IC50 (second compound 3.16 µM): > 10 µM | IC50 (second compound 10 µM): > 10 µM | viability, T/C [1]: 93% | viability, T/C [2]: 97.5% | viability, T/C [3]: 98.8% | viability, T/C [4]: 93.3% | viability, T/C [5]: 96.3% | viability, T/C [6]: 103% | viability, T/C [7]: 99% | viability, T/C [8]: 103% | viability, T/C [9]: 92.9% | viability, T/C [10]: 97% | viability, T/C [11]: 111% | viability, T/C [12]: 106% | viability, T/C [13]: 105% | viability, T/C [14]: 104% | viability, T/C [15]: 94.8% | viability, T/C [16]: 96.9% | viability, T/C [17]: 87.9% | viability, T/C [18]: 92.5% | viability, T/C [19]: 93.5% | viability, T/C [20]: 103% | viability, T/C [21]: 89.7% | viability, T/C [22]: 90.7% | viability, T/C [23]: 99.6% | viability, T/C [24]: 96.8% | viability, T/C [25]: 89.6% | viability, T/C [26]: 107% | viability, T/C [27]: 100% | viability, T/C [28]: 99.6% | viability, T/C [29]: 94.2% | viability, T/C [30]: 91.3% | viability, T/C [31]: 114% | viability, T/C [32]: 101% | viability, T/C [33]: 102% | viability, T/C [34]: 91.5% | viability, T/C [35]: 113% | viability, T/C [36]: 101%
